Laboratory results reported in patent US20260028326A1, “COMPOUND BASED ON ISOINDOLINE-SUBSTITUTED GLUTARIMIDE BACKBONE AND USE THEREOF” (GLUETACS THERAPEUTICS (SHANGHAI) CO., LTD., priority 2022, published 2026).

The compounds below were run against human Cereblon WT GST-tagged protein (Homo sapiens (Human), UniProt Q96SW2) (assay: CRBN-binding affinity, HTRF (CEREBLON BINDING kit)).
Method in brief: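 HTRF competition readout: compounds compete with a thalidomide-Re conjugate for GST-tagged wild-type human CRBN detected via Eu-labelled anti-GST antibody. Inhibition rate derived relative to protein-free blank wells.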

human Cereblon WT GST-tagged protein, sequence (Q96SW2 whole entry): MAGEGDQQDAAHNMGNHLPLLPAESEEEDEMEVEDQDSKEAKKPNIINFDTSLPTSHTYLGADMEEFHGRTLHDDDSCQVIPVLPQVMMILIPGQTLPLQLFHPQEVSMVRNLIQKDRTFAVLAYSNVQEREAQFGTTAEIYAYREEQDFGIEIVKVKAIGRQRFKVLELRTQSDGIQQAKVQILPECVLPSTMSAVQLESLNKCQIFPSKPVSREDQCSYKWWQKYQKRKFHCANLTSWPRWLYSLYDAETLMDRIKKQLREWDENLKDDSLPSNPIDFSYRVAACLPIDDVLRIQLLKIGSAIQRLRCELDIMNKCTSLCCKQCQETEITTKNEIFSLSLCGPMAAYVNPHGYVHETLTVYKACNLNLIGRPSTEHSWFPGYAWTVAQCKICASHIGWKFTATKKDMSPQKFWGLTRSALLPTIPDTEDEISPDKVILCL

Row | Structure (SMILES) | IC50 [µM]
1 | O=C1CCC(N2C(=O)c3ccc(C(=O)N4CCN(Cc5cccc(-c6ccc(Cl)cc6)c5)CC4)cc3C2=O)C(=O)N1 (centres unmarked) [GT-05631, 5-(4-((4′-chloro-[1,1′-biphenyl]-3-yl)methyl)piperazine-1-carbonyl)-2-(2,6-dioxopiperidin-3-yl)isoindoline-1,3-dione] | 1.75
2 | CC1(C)CCC(CN2C3CC2CN(c2ccc4c(c2)C(=O)N(C2CCC(=O)NC2=O)C4=O)C3)=C(c2ccc(F)cc2)C1 (centres unmarked) [GT-05387, 2-(2,6-dioxopiperidin-3-yl)-5-(6-((4′-fluoro-5,5-dimethyl-3,4,5,6-tetrahydro-[1,1′-biphenyl]-2-yl)methyl)-3,6-diazabicyclo[3.1.1]heptan-3-yl)isoindoline-1,3-dione] | 0.81
3 | CC1(C)CCC(C(=O)N2C3CCC2CN(Cc2ccc4c(c2)CN(C2CCC(=O)NC2=O)C4=O)C3)=C(c2ccc(Cl)cc2)C1 (centres unmarked) [GT-05523, 3-(5-((8-(4′-chloro-5,5-dimethyl-3,4,5,6-tetrahydro-[1,1′-biphenyl]-2-carbonyl)-3,8-diazabicyclo[3.2.1]octan-3-yl)methyl)-1-oxoisoindolin-2-yl)piperidine-2,6-dione] | 0.86
4 | CC1(C)CCC(C(=O)N2CCC(Cc3ccc4c(c3)CN(C3CCC(=O)NC3=O)C4=O)CC2)=C(c2ccc(F)cc2)C1 (centres unmarked) [GT-05487, 3-(5-((1-(4′-fluoro-5,5-dimethyl-3,4,5,6-tetrahydro-[1,1′-biphenyl]-2-carbonyl)piperidin-4-yl)methyl)-1-oxoisoindolin-2-yl)piperidine-2,6-dione] | 0.65
5 | CC1(C)CCC(C(=O)N2CC3(C2)CN(C(=O)c2ccc4c(c2)CN(C2CCC(=O)NC2=O)C4=O)C3)=C(c2ccc(Cl)cc2)C1 (centres unmarked) [GT-05682, 3-(5-(6-(4′-chloro-5,5-dimethyl-3,4,5,6-tetrahydro-[1,1′-biphenyl]-2-carbonyl)-2,6-diazaspiro[3.3]heptane-2-carbonyl)-1-oxoisoindolin-2-yl)piperidine-2,6-dione] | 0.57
6 | CC1(C)CCC(C(=O)N2CCN(Cc3ccc4c(c3)CN(C3CCC(=O)NC3=O)C4=O)CC2)=C(c2ccc(Cl)cc2)C1 (centres unmarked) [GT-04224, 3-(5-((4-(4′-chloro-5,5-dimethyl-3,4,5,6-tetrahydro-[1,1′-biphenyl]-2-carbonyl)piperazin-1-yl)methyl)-1-oxoisoindolin-2-yl)piperidine-2,6-dione] | 0.43
7 | O=C1CCC(N2Cc3c(CN4CCN(Cc5ccccc5-c5ccc(F)cc5)CC4)cccc3C2=O)C(=O)N1 (centres unmarked) [GT-05605, 3-(4-((4-((4′-fluoro-[1,1′-biphenyl]-2-yl)methyl)piperazin-1-yl)methyl)-1-oxoisoindolin-2-yl)piperidine-2,6-dione] | 1.05
8 | O=C1CCC(N2Cc3ccc(CN4CCN(CC5=C(c6ccc(F)cc6)CCCC5)CC4)cc3C2=O)C(=O)N1 (centres unmarked) [GT-05465, 3-(6-((4-((4′-fluoro-3,4,5,6-tetrahydro-[1,1′-biphenyl]-2-yl)methyl)piperazin-1-yl)methyl)-1-oxoisoindolin-2-yl)piperidine-2,6-dione] | 0.83
9 | CC1(C)CCC(CN2C3CCC2CN(Cc2ccc4c(c2)CN(C2CCC(=O)NC2=O)C4=O)C3)=C(c2ccc(F)cc2)C1 (centres unmarked) [GT-05510, 3-(5-((8-((4′-fluoro-5,5-dimethyl-3,4,5,6-tetrahydro-[1,1′-biphenyl]-2-yl)methyl)-3,8-diazabicyclo[3.2.1]octan-3-yl)methyl)-1-oxoisoindolin-2-yl)piperidine-2,6-dione] | 1.22
10 | CC1(C)CCC(CN2CCN(CCCc3ccc4c(c3)CN(C3CCC(=O)NC3=O)C4=O)CC2)=C(c2ccc(Cl)cc2)C1 (centres unmarked) [GT-05362, 3-(5-(3-(4-((4′-chloro-5,5-dimethyl-3,4,5,6-tetrahydro-[1,1′-biphenyl]-2-yl)methyl)piperazin-1-yl)propyl)-1-oxoisoindolin-2-yl)piperidine-2,6-dione] | 1.26
11 | O=C1CCC(N2Cc3cc(CN4CCN(C(=O)c5ccncc5-c5ccc(Cl)cc5)CC4)ccc3C2=O)C(=O)N1 (centres unmarked) [GT-04222, 3-(5-((4-(3-(4-chlorophenyl)isonicotinoyl)piperazin-1-yl)methyl)-1-oxoisoindolin-2-yl)piperidine-2,6-dione] | 0.56
12 | CC1(C)CCC(CN2C3CC2CN(C(=O)c2ccc4c(c2)CN(C2CCC(=O)NC2=O)C4=O)C3)=C(c2ccc(Cl)cc2)C1 (centres unmarked) [GT-05457, 3-(5-(6-((4′-chloro-5,5-dimethyl-3,4,5,6-tetrahydro-[1,1′-biphenyl]-2-yl)methyl)-3,6-diazabicyclo[3.1.1]heptane-3-carbonyl)-1-oxoisoindolin-2-yl)piperidine-2,6-dione] | 1.26
13 | CC1(C)CCC(CN2CC3CN(Cc4ccc5c(c4)CN(C4CCC(=O)NC4=O)C5=O)CC3C2)=C(c2ccc(Cl)cc2)C1 (centres unmarked) [GT-05653, 3-(5-((5-((4′-chloro-5,5-dimethyl-3,4,5,6-tetrahydro-[1,1′-biphenyl]-2-yl)methyl)hexahydropyrrolo[3,4-c]pyrrol-2(1H)-yl)methyl)-1-oxoisoindolin-2-yl)piperidine-2,6-dione] | 1.06
14 | CC1(C)CCC(C(=O)N2CCN(Cc3ccc(-c4ccc5c(c4)CN(C4CCC(=O)NC4=O)C5=O)cc3)CC2)=C(c2ccc(Cl)cc2)C1 (centres unmarked) [GT-05359, 3-(5-(4-((4-(4′-chloro-5,5-dimethyl-3,4,5,6-tetrahydro-[1,1′-biphenyl]-2-carbonyl)piperazin-1-yl)methyl)phenyl)-1-oxoisoindolin-2-yl)piperidine-2,6-dione] | 0.97
15 | O=C1CCC(N2Cc3cc(-c4ccc(CN5CCN(C(=O)c6ccccc6-c6ccc(Cl)cc6)CC5)cc4)ccc3C2=O)C(=O)N1 (centres unmarked) [GT-05874, 3-(5-(4-((4-(4′-chloro-[1,1′-biphenyl]-2-carbonyl)piperazin-1-yl)methyl)phenyl)-1-oxoisoindolin-2-yl)piperidine-2,6-dione] | 0.44
16 | O=C1CCC(N2Cc3cc(C(O)C4(O)CN(Cc5ccccc5-c5ccc(Cl)cc5)C4)ccc3C2=O)C(=O)N1 (centres unmarked) [GT-03880, 3-(5-((1-((4′-chloro-[1,1′-biphenyl]-2-yl)methyl)-3-hydroxyazetidin-3-yl)(hydroxy)methyl)-1-oxoisoindolin-2-yl)piperidine-2,6-dione] | 0.23
17 | O=C1CCC(N2Cc3cc(CN4CCN(C(=O)C5=C(c6ccc(F)cc6)CCCC5)CC4)cc(F)c3C2=O)C(=O)N1 (centres unmarked) [GT-05474, 3-(7-fluoro-5-((4-(4′-fluoro-3,4,5,6-tetrahydro-[1,1′-biphenyl]-2-carbonyl)piperazin-1-yl)methyl)-1-oxoisoindolin-2-yl)piperidine-2,6-dione] | 1.17
18 | CC1(C)CCC(CN2CC3CC2CN3C(=O)c2ccc3c(c2)CN(C2CCC(=O)NC2=O)C3=O)=C(c2ccc(F)cc2)C1 (centres unmarked) [GT-05452, 3-(5-(5-((4′-fluoro-5,5-dimethyl-3,4,5,6-tetrahydro-[1,1′-biphenyl]-2-yl)methyl)-2,5-diazabicyclo[2.2.1]heptane-2-carbonyl)-1-oxoisoindolin-2-yl)piperidine-2,6-dione] | 0.44
19 | O=C1CCC(N2Cc3cc(CN4CCN(C(=O)c5ccccc5-c5ccc(Cl)cc5)CC4)cc(F)c3C2=O)C(=O)N1 (centres unmarked) [GT-05700, 3-(5-((4-(4′-chloro-[1,1′-biphenyl]-2-carbonyl)piperazin-1-yl)methyl)-7-fluoro-1-oxoisoindolin-2-yl)piperidine-2,6-dione] | 1.22
20 | CC1(C)CCC(C(=O)N2C3CC2CN(C(=O)c2ccc4c(c2)CN(C2CCC(=O)NC2=O)C4=O)C3)=C(c2ccc(Cl)cc2)C1 (centres unmarked) [GT-05661, 3-(5-(6-(4′-chloro-5,5-dimethyl-3,4,5,6-tetrahydro-[1,1′-biphenyl]-2-carbonyl)-3,6-diazabicyclo[3.1.1]heptane-3-carbonyl)-1-oxoisoindolin-2-yl)piperidine-2,6-dione] | 0.96
21 | O=C1CCC(N2Cc3cc(C(=O)N4CC5(CCN(Cc6ccccc6-c6ccc(Cl)cc6)CC5)C4)ccc3C2=O)C(=O)N1 (centres unmarked) [GT-05641, 3-(5-(7-((4′-chloro-[1,1′-biphenyl]-2-yl)methyl)-2,7-diazaspiro[3.5]nonane-2-carbonyl)-1-oxoisoindolin-2-yl)piperidine-2,6-dione] | 1.48
22 | CC1(C)CCC(C(=O)N2CCN(Cc3cccc4c3CN(C3CCC(=O)NC3=O)C4=O)CC2)=C(c2ccc(Cl)cc2)C1 (centres unmarked) [GT-05528, 3-(4-((4-(4′-chloro-5,5-dimethyl-3,4,5,6-tetrahydro-[1,1′-biphenyl]-2-carbonyl)piperazin-1-yl)methyl)-1-oxoisoindolin-2-yl)piperidine-2,6-dione] | 1.93
23 | CC1(C)CCC(C(=O)N2CCN(Cc3cc(F)c4c(c3)CN(C3CCC(=O)NC3=O)C4=O)CC2)=C(c2ccc(Cl)cc2)C1 (centres unmarked) [GT-05527, 3-(5-((4-(4′-chloro-5,5-dimethyl-3,4,5,6-tetrahydro-[1,1′-biphenyl]-2-carbonyl)piperazin-1-yl)methyl)-7-fluoro-1-oxoisoindolin-2-yl)piperidine-2,6-dione] | 0.99
24 | CC1(C)CCC(CN2CC3CCC2CN3Cc2cc(F)c3c(c2)CN(C2CCC(=O)NC2=O)C3=O)=C(c2ccc(Cl)cc2)C1 (centres unmarked) [GT-05781, 3-(5-((5-((4′-chloro-5,5-dimethyl-3,4,5,6-tetrahydro-[1,1′-biphenyl]-2-yl)methyl)-2,5-diazabicyclo[2.2.2]octan-2-yl)methyl)-7-fluoro-1-oxoisoindolin-2-yl)piperidine-2,6-dione] | 0.71
25 | CC1(C)CCC(CN2C3CCC2CN(c2ccc4c(c2)CN(C2CCC(=O)NC2=O)C4=O)C3)=C(c2ccc(Cl)cc2)C1 (centres unmarked) [GT-05429, 3-(5-(8-((4′-chloro-5,5-dimethyl-3,4,5,6-tetrahydro-[1,1′-biphenyl]-2-yl)methyl)-3,8-diazabicyclo[3.2.1]octan-3-yl)-1-oxoisoindolin-2-yl)piperidine-2,6-dione] | 1.49
26 | CC1(C)CCC(C(=O)N2C3CCC2CN(Cc2ccc4c(c2)CN(C2CCC(=O)NC2=O)C4=O)C3)=C(c2ccc(F)cc2)C1 (centres unmarked) [GT-05517, 3-(5-((8-(4′-fluoro-5,5-dimethyl-3,4,5,6-tetrahydro-[1,1′-biphenyl]-2-carbonyl)-3,8-diazabicyclo[3.2.1]octan-3-yl)methyl)-1-oxoisoindolin-2-yl)piperidine-2,6-dione] | 0.6
